Results on 38 compounds are retold here after patent US9770452B2, “Quinoxaline derivatives as GPR6 modulators” (Takeda Pharmaceutical Company Limited, priority 2012, dated 2017).

A word on the IC50: it is the point on the concentration scale where inhibition reaches its midpoint.

Structures can show the parent of a compound that is named as a salt. Where two headings read alike, the source gives them in different places.

This assay addresses T1, GPR6 receptor (Homo sapiens, UniProt P46095).
T1 construct: expressed in transfected cells
The assay can be described thus: Inhibition of cAMP Activity of GPR6 In Vitro Assay (CHO-K1 cells, HTRF cAMP). The format is cell-based. The note with it: inhibition of constitutive cAMP activity of GPR6 expressed in CHO-K1 cells, approximate IC50, read-out: IC50. The gist of the method: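 CHO-K1 cells with doxycycline-induced (1 μg/ml, 20 h) GPR6 treated with compounds 45 min at 37 °C in Ringer's buffer (pH 7.4) with 0.5% fatty acid free BSA. Constitutive cAMP measured by Lance HTRF Ultra cAMP; IC50 from four-parameter logistic fit.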

T1 sequence (P46095 whole entry): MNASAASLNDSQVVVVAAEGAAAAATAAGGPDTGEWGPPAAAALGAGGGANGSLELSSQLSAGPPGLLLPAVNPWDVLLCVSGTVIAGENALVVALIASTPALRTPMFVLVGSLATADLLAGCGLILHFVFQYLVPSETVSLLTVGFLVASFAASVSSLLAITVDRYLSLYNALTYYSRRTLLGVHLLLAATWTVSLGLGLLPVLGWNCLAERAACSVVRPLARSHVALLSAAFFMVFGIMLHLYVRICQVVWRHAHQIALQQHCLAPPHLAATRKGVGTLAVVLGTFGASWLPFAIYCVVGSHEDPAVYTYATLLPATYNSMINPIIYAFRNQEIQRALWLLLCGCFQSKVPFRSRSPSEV

Take `c1ccc(CN2CCN(c3nc4ccccc4nc3NC3CC3)CC2)nc1` [Cpd 20, N-cyclopropyl-3-(4-(pyridin-2-ylmethyl)piperazin-1-yl)quinoxalin-2-amine, 22,2,2-trifluoroacetic acid salt]: the IC50 (compounds of Compound Table 1) amounted to 69.2 µM. On the same count and under the same terms, the same measure for “3-(4-(2,5-dichlorobenzyl)piperazin-1-yl)-N-(pyrimidin-4-yl)quinoxalin-2-amine, 2,2,2-trifluoroacetic acid salt [Cpd 174]”: 1.67 µM. The same measure, in the same setting: the same measure for “3-(4-(2,4-difluorophenoxy)piperidin-1-yl)-N-isopropylpyrazino[2,3-d]pyridazin-2-amine, 2,2,2-trifluoroacetic acid salt [Cpd 632]”: 0.028 µM; for “3-(4-((4-chloro-2,5-dimethylphenyl)sulfonyl)piperazin-1-yl)-2-(cyclopropylamino)quinoxaline-6-carbonitrile, 2,2,2-trifluoroacetic acid salt [Cpd 281]”: 0.96 µM. For the compound “(S)-2-(cyclopropylamino)-3-(4-((2,4-difluorophenyl)fluoromethyl)piperidin-1-yl)-N,N-dimethylpyrido[3,4-b]pyrazine-7-carboxamide, 2,2,2-trifluoroacetic acid salt [Cpd 576]”, the half-inhibitory concentration (IC50) (compounds of Compound Table 1) came to 2.88 µM. Same read-out and setting: the same measure for “(2-fluoro-4-methoxyphenyl)(1-(3-(isopropylamino)pyrazino[2,3-d]pyridazin-2-yl)piperidin-4-yl)methanone, 2,2,2-trifluoroacetic acid salt [Cpd 641]”: 0.014 µM; for “(4-bromo-3-fluorophenyl)(4-(3-(cyclopropylamino)-7-fluoroquinoxalin-2-yl)piperazin-1-yl)methanone [Cpd 247]”: 1.49 µM. In the case of `Cc1cccc(CN2CCN(c3nc4cccnc4nc3NC3CC3)CC2)c1` [Cpd 2, N-cyclopropyl-2-(4-(3-methylbenzyl)piperazin-1-yl)pyrido[2,3-b]pyrazin-3-amine, 2,2,2-trifluoroacetic acid salt], for the setting “compounds of Compound Table 1”, the concentration for half-maximal inhibition (IC50) was 45.4 µM. As to `CS(=O)(=O)c1ccc(C(=O)N2CCN(c3nc4ccccc4nc3NC3CC3)CC2)c(Cl)c1` [Cpd 67, (2-chloro-4-(methylsulfonyl)phenyl)(4-(3-(cyclopropylamino)quinoxalin-2-yl)piperazin-1-yl)methanone], the IC50 (compounds of Compound Table 1) came to 1.03 µM.

Regarding “N-cyclopropyl-3-(4-(4-fluorobenzyl)piperazin-1-yl)pyrido[3,4-b]pyrazin-2-amine, 2,2,2-trifluoroacetic acid salt [Cpd 291]”, the IC50 (compounds of Compound Table 1) came out at 0.14 µM. Same read-out and setting: under `Cc1ccc(Nc2nc3ccccc3nc2N2CCN(Cc3cccc(Cl)c3)CC2)cc1` [Cpd 30, 3-(4-(3-chlorobenzyl)piperazin-1-yl)-N-(p-tolyl)quinoxalin-2-amine, 2,2,2-trifluoroacetic acid salt] stands 26.2 µM; under “3-(4-((5-chloro-2-fluorophenyl)difluoromethyl)piperidin-1-yl)-N-cyclopropyl-5-methylpyrido[3,4-b]pyrazin-2-amine [Cpd 536]”, 0.93 µM. Consider “3-(4-(2-fluoro-4-methoxyphenoxy)piperidin-1-yl)-N-isopropylpyrido[3,4-b]pyrazin-2-amine, 2,2,2-trifluoroacetic acid salt [Cpd 616]”, for which the half-inhibitory concentration (IC50) (compounds of Compound Table 1) turned out to be 0.939 µM. With “mixture of N-cyclopropyl-3-(4-(2,5-dichlorobenzyl)piperazin-1-yl)-7-methoxyquinoxalin-2-amine, 2,2,2-trifluoroacetic acid salt and N-cyclopropyl-3-(4-(2,5-dichlorobenzyl)piperazin-1-yl)-7-methoxyquinoxalin-2-amine, 2,2,2-trifluoroacetic acid salt [Cpd 47]”, the IC50 (compounds of Compound Table 1) is 3.36 µM. Same read-out and setting: the same measure for “3-(4-(2-fluoro-4-methoxyphenoxy)piperidin-1-yl)-N-isopropylpyrido[3,4-b]pyrazin-2-amine, 2,2,2-trifluoroacetic acid salt [Cpd 617]”: 0.054 µM. Still for that read-out and setting: the same measure for `Clc1ccc(Cl)c(CN2CCN(c3nc4ccccc4nc3NCC3CC3)CC2)c1` [Cpd 42, N-(cyclopropylmethyl)-3-(4-(2,5-dichlorobenzyl)piperazin-1-yl)quinoxalin-2-amine, 2,2,2-trifluoroacetic acid salt]: 3.16 µM; for “(4-chloro-3-methylphenyl)(4-(3-(pyridin-3-ylamino)quinoxalin-2-yl)piperazin-1-yl)methanone, 2,2,2-trifluoroacetic acid salt [Cpd 230]”: 0.8 µM; for “3-(cyclopropylamino)-2-(4-(2,5-dichlorobenzyl)piperazin-1-yl)quinoxaline-5-carbonitrile, 2,2,2-trifluoroacetic acid salt [Cpd 248]”: 1.85 µM. Regarding “N-cyclopropyl-2-(4-(2,4-difluorobenzyl)piperidin-1-yl)pyrido[3,4-b]pyrazin-3-amine, 2,2,2-trifluoroacetic acid salt [Cpd 427]”, the IC50 (compounds of Compound Table 1) came to 0.078 µM. Same read-out and setting: under “N-cyclopropyl-3-(4-(4-fluoro-2-methylbenzyl)piperazin-1-yl)quinoxalin-2-amine, 2,2,2-trifluoroacetic acid salt [Cpd 157]” stands 105 µM; under “3-(4-(2,5-dichlorobenzyl)piperazin-1-yl)-2-(isoxazol-3-ylamino)quinoxaline-6-carbonitrile, 2,2,2-trifluoroacetic acid salt [Cpd 340]”, 15.4 µM; under “(4-(2-(cyclopropylamino)pyrido[3,4-b]pyrazin-3-yl)piperazin-1-yl)(4-(difluoromethyl)phenyl)methanone, 2,2,2-trifluoroacetic acid salt [Cpd 289]”, 0.27 µM. The same measure, in the same setting: under “(4-chloro-2-(trifluoromethyl)phenyl)(4-(2-(cyclopropylamino)pyrido[3,4-b]pyrazin-3-yl)piperazin-1-yl)methanone, 2,2,2-trifluoroacetic acid salt [Cpd 392]” stands 0.26 µM. The same measure, in the same setting: the same measure for “N-cyclopropyl-3-(4-(2,4-difluorobenzyl)piperidin-1-yl)-5-methylpyrido[3,4-b]pyrazin-2-amine, 2,2,2-trifluoroacetic acid salt [Cpd 493]”: 0.009 µM; for “4-chloro-3-(1-(7-chloro-2-(cyclopropylamino)pyrido[3,4-b]pyrazin-3-yl)piperidine-4-carbonyl)benzonitrile [Cpd 595]”: 0.478 µM; for `Cc1cc(Br)ccc1C(=O)N1CCN(c2nc3ccccc3nc2NC2CC2)CC1` [Cpd 122, (4-bromo-2-methylphenyl)(4-(3-(cyclopropylamino)quinoxalin-2-yl)piperazin-1-yl)methanone, 2,2,2-trifluoroacetic acid salt]: 10.3 µM. On to “2-(cyclopropylamino)-3-(4-(2,4-difluorobenzyl)piperazin-1-yl)pyrido[3,4-b]pyrazine-5-carbonitrile, 2,2,2-trifluoroacetic acid salt [Cpd 612]”, for which the half-inhibitory concentration (IC50) (compounds of Compound Table 1) was found to be 0.114 µM. The same measure, in the same setting: under “3-(4-(2-fluoro-4-methoxybenzyl)piperidin-1-yl)-2-(isopropylamino)pyrido[3,4-b]pyrazine-7-carbonitrile, 2,2,2-trifluoroacetic acid salt [Cpd 636]” stands 0.016 µM; under `c1ccc2nc(N3CCN(Cc4ccncc4)CC3)c(NC3CC3)nc2c1` [Cpd 17, N-cyclopropyl-3-(4-(pyridin-4-ylmethyl)piperazin-1-yl)quinoxalin-2-amine, 2,2,2-trifluoroacetic acid salt], 25.9 µM. Same read-out and setting: under “3-(4-((4-chlorophenyl)sulfonyl)piperazin-1-yl)-2-(cyclopropylamino)quinoxaline-6-carbonitrile, 2,2,2-trifluoroacetic acid salt [Cpd 227]” stands 3.29 µM; under “7-chloro-N-cyclopropyl-3-(4-((2,4-difluorophenyl)fluoromethyl)piperidin-1-yl)pyrido[3,4-b]pyrazin-2-amine, 2,2,2-trifluoroacetic acid salt [Cpd 489]”, 0.007 µM. Still for that read-out and setting: under “3-(4-(2,5-difluorobenzyl)piperazin-1-yl)-2-((3,3,3-trifluoropropyl)amino)quinoxaline-6-carbonitrile, 2,2,2-trifluoroacetic acid salt [Cpd 400]” stands 0.39 µM; under “3-(4-((4-bromo-2-fluorophenyl)sulfonyl)piperazin-1-yl)-2-(cyclopropylamino)quinoxaline-6-carbonitrile, 2,2,2-trifluoroacetic acid salt [Cpd 285]”, 1.36 µM. On to `Cc1cc2nc(NC3CC3)c(C3CCN(Cc4ccc(F)cc4F)CC3)nc2cn1` [Compound Table 2: Cpd 6, N-cyclopropyl-3-(1-(2,4-difluorobenzyl)piperidin-4-yl)-7-methylpyrido[3,4-b]pyrazin-2-amine, 2,2,2-trifluoroacetic acid salt], for which the half-inhibitory concentration (IC50) (compounds of Compound Table 2) came out at 0.53 µM. Turning to “(R)-(2-(cyclopropylamino)-3-(4-((2,4-difluorophenyl)fluoromethyl)piperidin-1-yl)pyrido[3,4-b]pyrazin-7-yl)(morpholino)methanone, 2,2,2-trifluoroacetic acid salt [Cpd 580]”, the IC50 (compounds of Compound Table 1) was 0.008 µM. The same measure, in the same setting: the same measure for “(4-chloro-2-fluorophenyl)(1-(2-(cyclopropylamino)pyrido[3,4-b]pyrazin-3-yl)piperidin-4-yl)methanone, 2,2,2-trifluoroacetic acid salt [Cpd 447]”: 0.035 µM; for “3-(4-((2-cyanophenyl)sulfonyl)piperazin-1-yl)-2-(cyclopropylamino)quinoxaline-6-carbonitrile, 2,2,2-trifluoroacetic acid salt [Cpd 252]”: 2.54 µM. “N-cyclopropyl-3-(4-(4-fluorobenzyl)piperidin-1-yl)pyrido[3,4-b]pyrazin-2-amine, 2,2,2-trifluoroacetic acid salt [Cpd 421]”: the IC50 (compounds of Compound Table 1) came out at 8.39 µM.
